According to PMC5909954 (Toxicology, 2018):

Experiments:
[1] = target: Complex I; experiment: immunocapture-based OXPHOS activity assay; type: biochemical, Bos taurus
[2] = target: Complex V (F1FO ATP synthase); experiment: immunocapture-based OXPHOS activity assay; type: biochemical, Bos taurus

SMILES	IC50 [1] [µM]	IC50 [2] [µM]
C/C(O)=C(\C#N)C(=O)Nc1ccc(C(F)(F)F)cc1 [A77 1726, 2-Cyano-3-hydroxy-N-[4-(trifluoromethyl)phenyl]-2-butenamide]	229	63.7
Cc1oncc1C(=O)Nc1ccc(C(F)(F)F)cc1 [leflunomide]	200	35
